Experimental data as given in US9115122B2, “Non-ATP dependent inhibitors of extracellular signal-regulated kinase (ERK)” (UNIVERSITY OF MARYLAND, BALTIMORE, priority 2012, dated 2015).

Key:
RPMI7951 melanoma cells [1] = test: Dose-response growth inhibition (GI50) of select compounds; format: cell-based; conditions: Homo sapiens, RPMI-7951, 48 h, two days
Description: (§1) An example of the dose response curve for compound 30h and the BRaf inhibitor PLX4032 for inhibiting the growth of melanoma cell lines is shown in FIG. 14. […] A summary of GI50 values for select compounds along with comparisons to know ERK pathway inhibitors in various cell lines is shown in Table 13. […] First, thiazolidinedione compounds have been identified to be selective inhibitors of cancer cell lines containing activated ERK signaling. Second, changes in the 4-ethoxyphenyl component of the parent compound 76 improve selectivity and potency for inhibiting melanoma cell growth. Third, compound 30h is a potent inhibitor of melanoma cell lines that have become resistant to the clinically relevant BRaf and MEK inhibitors. […] Lastly, 30h is as potent as the ATP-competitive pyrazolopyridazinamine ERK inhibitor (FR180204) in preventing melanoma cell proliferation and provides an alternative non-ATP-dependent approach to target cancer cells that are dependent on active ERK signaling.
(§2) Melanoma cells (A375, SK-MEL-28, and RPMI7951) were seeded at a density of 5,000 per well in 96-well plate. After overnight incubation, cells were treated with varying doses of PLX4032 (A) or 31h (B) for two days. Cell viability was determined by the addition of Cell Titer-Blue Reagent (20 μL/well) followed by 2 hours of incubation at 37° C. after which fluorescence was recorded (555/585 nm). Cell viability was expressed as percentage of vehicle control and data represent the average of three individual experiments.

SK-MEL-28 melanoma cells [2] = test: as above; format: cell-based; conditions: Homo sapiens, SK-MEL-28, 48 h, two days
Description: as §1, §2

A375 melanoma cells [3] = test: as above; format: cell-based; conditions: Homo sapiens, A-375, 48 h, two days
Description: as §1, §2

Jurkat cells = test: as above; format: cell-based; conditions: Homo sapiens, Jurkat
HeLa cells = test: as above; format: cell-based; conditions: Homo sapiens, HeLa
[4] = test system: serum response element (SRE); test: SRE promoter luciferase assay, HeLa cells (Example 4); format: cell-based
Description: (§3) HeLa cells were seeded in 24-well plates (4×10^4 cells/well) and incubated 18 hours prior to achieve ˜60-70% confluent. Cells were transfected with activator protein-1 (pAP1(PMA)-TA-Luc; Clontech) or the serum response element (pGL4.33-SRE; Promega) luciferase reporter plasmids (250 ng/well) using Lipofectamine™ (Invitrogen). After 16 hours, cells were treated with increasing amount of compounds as indicated for 20 minutes, followed by stimulation with EGF (25 ng/mL) for 4.5 hr. The luciferase activity in the cell extracts was determined with a Dual Luciferase Assay System (Promega) according to the manufacturer's instructions. Luciferase activities were monitored with a Lumat LB 9507 luminometer (Berthold Technology) and data were normalized to the amount of protein in each sample.

[5] = test system: HeLa cervical carcinoma cells; test: Cell proliferation WST-1 assay, single dose (Example 4); format: cell-based; conditions: 100 μM, 48 hours
Procedure, shortened: (§4)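 Cells (~5000/well) recovered 16-20 hours after seeding, then were exposed to test compound for 48 hours. WST-1 reagent was added and absorbance read at 450 nm, background at 650 nm subtracted. Values normalized to DMSO-only control cells.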

RPMI-7951 melanoma cells = test: as above; format: cell-based; conditions: 100 μM, 48 hours
Procedure, shortened: as §4

SK-MEL-28 melanoma cells [6] = test: as above; format: cell-based; conditions: 100 μM, 48 hours
Procedure, shortened: as §4

HL-60 leukemic cells = test: as above; format: cell-based; conditions: 100 μM, 48 hours
Procedure, shortened: as §4

A375 melanoma cells [7] = test: as above; format: cell-based; conditions: 100 μM, 48 hours
Procedure, shortened: as §4

[8] = test system: Jurkat T-cell leukemia cells; test: as above; format: cell-based; conditions: 100 μM, 48 hours
Procedure, shortened: as §4

[9] = test system: activator protein-1 (AP-1) promoter; test: AP-1 promoter luciferase assay, HeLa cells (Example 4); format: cell-based
Description: as §3

[10] = basic group replacing the ethylamine group; cited from earlier work
AP-1 promoter = AP-1 promoter luciferase assay, EGF-stimulated HeLa cells (Example 1); format: cell-based; conditions: Homo sapiens, EGF stimulation, 4 hours, read-out: IC50 inhibition of the AP-1 promoter
Description: FIG. 4. Compound SF-3-026 and analogs inhibit SRE and AP-1 transcription factor function. (a) HeLa cells were transfected with constructs containing SRE or AP-1 promoters driving luciferase expression and then stimulated with EGF in the presence or absence of SF-3-026 for 4 hours followed by measurements of luciferase activity. Cells treated with U0126 were used as a positive inhibitor control. (b and c) HeLa cells were prepared and treated as in (a) with the indicated concentrations of SF-3-026 or analogs for 4 hours followed by the measurement of luciferase activity regulated by the SRE (b) or AP-1 (c) promoters. Data in (b and c) were normalized to EGF-only treatment and represent the mean and standard deviation from three independent experiments. (d) Compound SF-3-026 and analogs inhibit MEK1-induced AP-1 transcription factor function. […]
HeLa cells were seeded in 24-well plates (40,000 cells/well) and incubated 18 hours to achieve ˜60-70% confluent. […] The luciferase activity in the cell extracts was determined with a Dual Luciferase Assay System (Promega) according to the manufacturer's instructions. Luciferase activities were monitored with a Lumat LB 9507 luminometer (Berthold Technology) and data were normalized to the amount of protein in each sample. […]

[11] = test system: HeLa cervical carcinoma cells; test: Cell proliferation, fluorescent Cell Titer Blue Assay (Example 1); format: cell-based; conditions: Homo sapiens, 48 hours
Description: (§5) FIG. 5. Dose dependent inhibition of cancer cell proliferation in vitro by SF-3-026 and analogs. A375 (closes circles), RPM17951 (closed squares), HeLa (open circles), or Jurkat (open squares) cells were treated for 48 hours with indicated concentration of (a) SF-3-026, (b) SF-2-027, (c) SF-2-029, or (d) SF-2-030 and cell proliferation was assessed by the fluorescent Cell Titer Blue Assay. The data were reproduced in 3 separate experiments.
(§6) Cells were seeded at 25,000 cells/well in 96-well plate and cultured overnight. Cells were treated for 24 hours with various concentrations of compounds and cell viability or caspase 3/7 activity were measured according to manufacturer's instructions using the fluorescent Cell Titer Blue Assay (Promega) or luminescent Caspase 3/7 Glo Assay (Promega).
(§7) It was next determined whether inhibition of AP-1 proteins by SF-3-026 and analogs affected the proliferation of cancer cells driven by mutations that constitutively activate the ERK1/2 pathway. For these experiments, A375 and RPMI7951 melanoma cells, which have a valine to glutamate mutation on residue 600 in BRaf that causes constitutive ERK1/2 activation, were chosen. Moreover, RPMI7951 cells are resistant to clinically used BRaf inhibitors due to overexpression of MAP3K8 (the gene encoding COT/Tp12) that re-activates ERK1/2 signaling. Both melanoma cells lines were treated with varying doses of SF-3-026 or analogs and cell viability was compared to HeLa cervical carcinoma and Jurkat T-cell leukemia cells, which are p53 defective but contain no known activating mutations in the ERK1/2 pathway.

RPMI7951 melanoma cells [12] = test: as above; format: cell-based; conditions: Homo sapiens, RPMI-7951; 48 hours
Description: as §5, §6, §7

A375 melanoma cells [13] = test: as above; format: cell-based; conditions: Homo sapiens, A-375; 48 hours
Description: as §5, §6, §7

[14] = test system: Jurkat T-cell leukemia cells; test: as above; format: cell-based; conditions: Homo sapiens, 48 hours
Description: as §5, §6, §7

[15] = test system: MEK1-induced AP-1 promoter activity; test: AP-1 promoter luciferase assay, HeLa cells expressing active MEK1 mutant; format: cell-based; conditions: Homo sapiens, 4 hours, read-out: IC50 inhibition of MEK1-induced AP-1 promoter activity
Description: FIG. 4. Compound SF-3-026 and analogs inhibit SRE and AP-1 transcription factor function. (a) HeLa cells were transfected with constructs containing SRE or AP-1 promoters driving luciferase expression and then stimulated with EGF in the presence or absence of SF-3-026 for 4 hours followed by measurements of luciferase activity. Cells treated with U0126 were used as a positive inhibitor control. (b and c) HeLa cells were prepared and treated as in (a) with the indicated concentrations of SF-3-026 or analogs for 4 hours followed by the measurement of luciferase activity regulated by the SRE (b) or AP-1 (c) promoters. Data in (b and c) were normalized to EGF-only treatment and represent the mean and standard deviation from three independent experiments. (d) Compound SF-3-026 and analogs inhibit MEK1-induced AP-1 transcription factor function. HeLa cells were transfected with the AP-1 promoter construct and a constitutively active MEK1 mutant in the presence (10 μM) or absence of the MEK1/2 inhibitor (U0126) or an ATP-competitive ERK inhibitor (ERKi) for 4 hours followed by measurements of luciferase activity. (e) Cells expressing the AP-1 promoter and an active MEK-1 construct were treated with the indicated concentrations of SF-3-026 or analogs for 4 hours followed by the measurement of luciferase activity. Data in (e) were normalized to active MEK1-only treatment and represent the mean and standard deviation from three independent experiments.
as §3, with “(40,000” for “(4×10^4”, “hours” for “hours prior”, “pre-treated” for “treated”, “varying amounts” for “increasing amount”, “hr. In some experiments, cells transfected with the pAP1(PMA)-TA-Luc promoter and a constitutively active MEK1 mutant cDNA were treated with varying amounts of compounds during the last 4 hours of incubation.” for “hr.”, “sample. […]” for “sample.”

Compound | GI50 (RPMI7951 melanoma cells [1]) | GI50 (SK-MEL-28 melanoma cells [2]) | GI50 (A375 melanoma cells [3]) | GI50 (Jurkat cells) | GI50 (HeLa cells) | Cell Viability (% of Vehicle) HeLa [5] | Cell Viability (% of Vehicle) RPMI-7951 (RPMI-7951 melanoma cells) | Cell Viability (% of Vehicle) SK-MEL-28 (SK-MEL-28 melanoma cells [6]) | Cell Viability (% of Vehicle) HL-60 (HL-60 leukemic cells) | Cell Viability (% of Vehicle) A375 (A375 melanoma cells [7]) | Cell Viability (% of Vehicle) Jurkat [8] | pKa [10] | also measured
NCCN1C(=O)S/C(=C\c2ccc(OCc3ccccc3)cc2)C1=O [Compound 30h, (Z)-3-(2-aminoethyl)-5-(4-(benzyloxy)benzylidene)thiazolidine-2,4-dione] | 7 µM | 9 µM | 7 µM | > 100 µM | > 100 µM | 59 ± 3 % of Vehicle | 0.2 ± 0.04 % of Vehicle | 1.0 ± 1 % of Vehicle | 5.2 ± 2 % of Vehicle | 0.6 ± 0.4 % of Vehicle | 87 ± 5 % of Vehicle | – | inhibition of ERK-mediated SRE promoter activity ([4]; EGF): less potent than compounds 76 and 30g at lower concentrations; inhibition of ERK-mediated AP-1 promoter activity ([9]; EGF): less potent than compounds 76 and 30g at lower concentrations
CC(C)COc1ccc(/C=C2\SC(=O)N(CCN)C2=O)cc1 [Compound 30g, (Z)-3-(2-aminoethyl)-5-(4-isobutoxybenzylidene)thiazolidine-2,4-dione] | 11 µM | 36 µM | 22 µM | > 100 µM | ~100 µM | 48 ± 3 % of Vehicle | 0.3 ± 0.04 % of Vehicle | 0.8 ± 0.2 % of Vehicle | 5.0 ± 2 % of Vehicle | 1.8 ± 0.5 % of Vehicle | 91 ± 8 % of Vehicle | – | IC50 ([4]; Homo sapiens, EGF 25 ng/mL, read-out: estimated IC50 SRE promoter activity): ≤ 5 µM; IC50 ([9]; Homo sapiens, EGF 25 ng/mL, read-out: estimated IC50 AP-1 promoter activity): ≤ 5 µM
CCOc1ccc(/C=C2\SC(=O)N(Cc3cccc(N)n3)C2=O)cc1 [Compound 28b, (Z)-3-((6-aminopyridin-2-yl)methyl)-5-(4-ethoxybenzylidene)thiazolidine-2,4-dione] | – | – | – | – | – | 87 ± 6 % of Vehicle | 101 ± 4 % of Vehicle | 86 ± 3 % of Vehicle | 107 ± 26 % of Vehicle | 111 ± 1 % of Vehicle | 105 ± 5 % of Vehicle | ~6 | –
[H]/N=C(/N)NCCN1C(=O)SC(=Cc2ccc(OCC)cc2)C1=O [Compound 28c, (Z)-1-(2-(5-(4-ethoxybenzylidene)-2,4-dioxothiazolidin-3-yl)ethyl)guanidine] | – | – | – | – | – | 17 ± 2 % of Vehicle | 42 ± 6 % of Vehicle | 55 ± 6 % of Vehicle | 20 ± 6 % of Vehicle | 31 ± 4 % of Vehicle | 6.5 ± 0.5 % of Vehicle | ~12 | –
O=S1(=O)C=CC(OS(=O)(=O)c2ccc(-c3ccccc3)cc2)C1 (stereo not shown) [SF-3-029] | – | – | – | – | – | – | – | – | – | – | – | – | IC50 (AP-1 promoter): < 10 µM; GI50 [11]: 25 µM; GI50 (RPMI7951 melanoma cells [12]): 4.9 µM; GI50 (A375 melanoma cells [13]): 7.9 µM; GI50 [14]: > 50 µM; IC50 [15]: 5 to 10 µM
